Test results: paper PMC2646182 (Journal of the American Chemical Society, 2009)
“Also recorded” adds a separate entry of the source. Where two headings read alike, the source gives them in different places.

What was measured:
L1210 [1] = assay: In vitro cytotoxic activity, L1210; assay type: cell-based; conditions: for IC50: L1210 in vitro cytotoxic activity
L1210 [2] = conditions: read-out: L1210 IC50; L1210, introduction; cited from earlier work
w794 DNA = assay: DNA alkylation, thermally-induced strand cleavage of w794 DNA; assay type: biochemical; conditions: 23 °C
[3] = Acid-catalyzed solvolysis at pH 3 monitored by UV; assay type: physicochemical; conditions: for solvolysis half-life t1/2 / solvolysis rate constant k: pH 3, 50% MeOH–buffer
w794 and w836 duplex DNA = assay: DNA alkylation of the simple alkylation subunits; assay type: biochemical; conditions: for DNA alkylation selectivity (sites): both enantiomers
Solvolysis at pH 7 = assay type: physicochemical
[4] = pH 3; cited from earlier work
w836 DNA = assay: DNA alkylation, thermally-induced strand cleavage of w836 DNA; assay type: biochemical; conditions: after 24 h

COC(=O)c1cc2c([nH]1)C(=O)C=C1N(C(=O)c3cc4cc(OC)c(OC)c(OC)c4[nH]3)CC3CC123 (single isomer, unassigned; (+)) [(+)-1, duocarmycin SA, reference compound]
IC50 (L1210 [1]): 0.01 nM

COC(=O)c1cc2c([nH]1)C(=O)C=C1N(C(=O)OC(C)(C)C)CC3CC123 (single isomer, unassigned; (+)) [(+)-8, N-Boc-DSA, reference compound]
IC50 (L1210 [1]): 6 nM

COC(=O)c1cc2c([nH]1)C(=O)C=C1N(C(=O)c3cc4cc(OC)c(OC)c(OC)c4[nH]3)CC3CC123 (single isomer, unassigned; (-)) [(−)-1, duocarmycin SA, reference compound]
IC50 (L1210 [1]): 0.1 nM

COC(=O)c1cc2c([nH]1)C(=O)C=C1N(C(=O)OC(C)(C)C)CC3CC123 (single isomer, unassigned; (-)) [(−)-8, N-Boc-DSA, reference compound]
IC50 (L1210 [1]): 60 nM

COC(=O)c1cc2c([nH]1)[C@@]13C[C@@H]1CN(C(=O)c1cc4cc(OC)c(OC)c(OC)c4[nH]1)C3=CC2=O [(+)-5, iso-duocarmycin SA]
IC50 (L1210 [1]): 0.05 nM

COC(=O)c1cc2c([nH]1)[C@@]13C[C@@H]1CN(C(=O)OC(C)(C)C)C3=CC2=O [(+)-7, N-Boc-iso-DSA]
IC50 (L1210 [1]): 33 nM

COC(=O)c1cc2c([nH]1)[C@@]13C[C@@H]1CN(C(=O)c1cc4cc(OC)c(OC)c(OC)c4[nH]1)C3=CC2=O [(−)-5, iso-duocarmycin SA]
IC50 (L1210 [1]): 0.55 nM

COC(=O)c1cc2c([nH]1)[C@@]13C[C@@H]1CN(C(=O)OC(C)(C)C)C3=CC2=O [(−)-7, N-Boc-iso-DSA]
IC50 (L1210 [1]): 330 nM

COC(=O)c1cc2c([nH]1)C(=O)C=C1N(C(=O)c3cc4cc(OC)c(OC)c(OC)c4[nH]3)CC3CC123 (stereo not shown) [Compound 1, Duocarmycin SA]
IC50 (L1210 [2]): 0.01 nM

COC(=O)c1cc2c([nH]1)[C@@]13C[C@@H]1CN(C(=O)c1cc4cc(OC)c(OC)c(OC)c4[nH]1)C3=CC2=O [Compound 5, iso-duocarmycin SA]
DNA alkylation site selectivity vs duocarmycin SA counterpart (w794 DNA; w794, 48 h): alkylated the same site as its duocarmycin SA counterpart | fold difference in potency, natural vs unnatural enantiomer (L1210 [1]; L1210): 10 fold | fold less potent than the duocarmycin SA / yatakemycin series counterpart (L1210 [1]; L1210): 5 fold | IC50 (L1210 [1]): 0.05 nM

COC(=O)c1cc2c([nH]1)[C@@]13C[C@@H]1CN(C(=O)OC(C)(C)C)C3=CC2=O [Compound 7, N-Boc-iso-DSA]
solvolysis half-life t1/2 [3]: 89 h | solvolysis rate constant k [3]: 2.2e-06 s⁻¹ | fold more reactive than N-Boc-DSA (8) ([3]; pH 3 solvolysis): 2 fold | times less efficient DNA alkylation than the full length agents (w794 and w836 duplex DNA): 10^3–10^4 times | DNA alkylation selectivity (sites) (w794 and w836 duplex DNA): 5′-AA and 5′-TA | fold difference in potency, natural vs unnatural enantiomer (L1210 [1]; L1210): 10 fold | fold less potent than the duocarmycin SA / yatakemycin series counterpart (L1210 [1]; L1210): 5 fold | solvolysis at pH 7 (Solvolysis at pH 7): no measurable solvolysis; also recorded: stable

COC(=O)c1cc2c([nH]1)C(=O)C=C1N(C(=O)OC(C)(C)C)CC3CC123 (stereo not shown) [Compound 8, N-Boc-DSA, reference compound]
times less efficient DNA alkylation than the full length agents (w794 and w836 duplex DNA): 10^3–10^4 times | DNA alkylation selectivity (sites) (w794 and w836 duplex DNA): 5′-AA and 5′-TA | solvolysis half-life t1/2 [4]: 177 h | solvolysis at pH 7 (Solvolysis at pH 7): stable

O-benzyl-iso-duocarmycin SA [(+)-34]
IC50 (L1210 [1]): 7 nM

O-benzyl-iso-duocarmycin SA [(−)-34]
fold more reactive than N-Boc-iso-DSA (7) ([3]; pH 3 solvolysis): 470 fold | DNA alkylation efficiency relative to duocarmycin SA (1) (w794 DNA; w794, 22 h, 1 × 10^−5 M): nearly equivalent to that of 1 | fold less active than duocarmycin SA (L1210 [1]; L1210): 600 fold | fold less active than iso-duocarmycin SA (L1210 [1]; L1210): 120 fold | IC50 (L1210 [1]): 6 nM

O-benzyl-iso-duocarmycin SA [Compound 34]
solvolysis half-life t1/2 [3]: 0.19 h | solvolysis rate constant k [3]: 0.001 s⁻¹ | fold more reactive than N-Boc-iso-DSA (7) ([3]; pH 3 solvolysis): 470 fold | solvolysis half-life t1/2 (Solvolysis at pH 7; pH 7, 50% MeOH–H2O): 0.20 h | solvolysis rate constant k (Solvolysis at pH 7; pH 7, 50% MeOH–H2O): 0.000977 s⁻¹

iso-yatakemycin [(+)-6]
fold less DNA alkylation than the yatakemycin enantiomers (w836 DNA): 2–5 fold | IC50 (L1210 [1]): 0.015 nM

iso-yatakemycin [(−)-6]
fold less DNA alkylation than the yatakemycin enantiomers (w836 DNA): 2–5 fold | fold less potent than the duocarmycin SA / yatakemycin series counterpart (L1210 [1]; L1210): ca. 5 fold | IC50 (L1210 [1]): 0.03 nM

yatakemycin [Compound 3, reference compound]
IC50 (L1210 [2]): 0.003 to 0.006 nM | IC50 (L1210 [1]): 0.006 nM
